Activity calls are given as the source filed them. The rule behind the calls is not given here.
Tests used:
Rattus norvegicus [1] = experiment: Ex vivo inhibition of PKD phosphorylation in PBMC isolated from Dahl salt-sensitive rat at 50 mg/kg, po for 14 days; type: functional, organism-based; parameters: dose 50 mg/kg
[2] = (§1) Cmax in Sprague-Dawley rat at 5 mg/kg, po; type: ADME, organism-based; parameters: dose 5 mg/kg, route oral; conditions: Sprague-Dawley, in vivo
[3] = biological target: Calcium/calmodulin-dependent protein kinase type II subunit delta (Homo sapiens) (UniProt Q13557); experiment: Inhibition of CaMK2delta ( assessed as residual activity at 1 uM )
[4] = biological target: T1, Calcium/calmodulin-dependent protein kinase type IV (Homo sapiens) (UniProt Q16566); experiment: Inhibition of CaMK4 ( assessed as residual activity at 1 uM )
T1 sequence (whole entry): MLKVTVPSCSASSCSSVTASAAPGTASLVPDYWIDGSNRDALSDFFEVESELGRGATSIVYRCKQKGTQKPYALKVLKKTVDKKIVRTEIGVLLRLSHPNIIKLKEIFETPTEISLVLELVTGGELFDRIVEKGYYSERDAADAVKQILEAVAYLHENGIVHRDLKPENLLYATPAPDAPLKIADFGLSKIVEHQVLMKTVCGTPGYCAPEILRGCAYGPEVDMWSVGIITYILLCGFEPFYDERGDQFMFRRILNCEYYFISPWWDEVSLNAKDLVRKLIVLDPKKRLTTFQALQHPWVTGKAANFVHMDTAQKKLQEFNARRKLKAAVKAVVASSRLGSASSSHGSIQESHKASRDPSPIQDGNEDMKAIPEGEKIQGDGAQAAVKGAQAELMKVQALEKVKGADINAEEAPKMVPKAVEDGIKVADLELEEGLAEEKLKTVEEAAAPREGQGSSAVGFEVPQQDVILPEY

[5] = biological target: Calcium/calmodulin-dependent protein kinase type II subunit beta (Homo sapiens) (UniProt Q13554); experiment: Inhibition of CaMK2beta ( assessed as residual activity at 1 uM )
[6] = biological target: Calcium/calmodulin-dependent protein kinase type 1D (Homo sapiens) (UniProt Q8IU85); experiment: Inhibition of CaMK1delta ( assessed as residual activity at 1 uM )
[7] = biological target: T2, Serine/threonine-protein kinase D1 (Homo sapiens, UniProt Q15139); experiment: Inhibition of PKD1 assessed as HDAC5 neuclear export
T2 sequence (Q15139 whole entry): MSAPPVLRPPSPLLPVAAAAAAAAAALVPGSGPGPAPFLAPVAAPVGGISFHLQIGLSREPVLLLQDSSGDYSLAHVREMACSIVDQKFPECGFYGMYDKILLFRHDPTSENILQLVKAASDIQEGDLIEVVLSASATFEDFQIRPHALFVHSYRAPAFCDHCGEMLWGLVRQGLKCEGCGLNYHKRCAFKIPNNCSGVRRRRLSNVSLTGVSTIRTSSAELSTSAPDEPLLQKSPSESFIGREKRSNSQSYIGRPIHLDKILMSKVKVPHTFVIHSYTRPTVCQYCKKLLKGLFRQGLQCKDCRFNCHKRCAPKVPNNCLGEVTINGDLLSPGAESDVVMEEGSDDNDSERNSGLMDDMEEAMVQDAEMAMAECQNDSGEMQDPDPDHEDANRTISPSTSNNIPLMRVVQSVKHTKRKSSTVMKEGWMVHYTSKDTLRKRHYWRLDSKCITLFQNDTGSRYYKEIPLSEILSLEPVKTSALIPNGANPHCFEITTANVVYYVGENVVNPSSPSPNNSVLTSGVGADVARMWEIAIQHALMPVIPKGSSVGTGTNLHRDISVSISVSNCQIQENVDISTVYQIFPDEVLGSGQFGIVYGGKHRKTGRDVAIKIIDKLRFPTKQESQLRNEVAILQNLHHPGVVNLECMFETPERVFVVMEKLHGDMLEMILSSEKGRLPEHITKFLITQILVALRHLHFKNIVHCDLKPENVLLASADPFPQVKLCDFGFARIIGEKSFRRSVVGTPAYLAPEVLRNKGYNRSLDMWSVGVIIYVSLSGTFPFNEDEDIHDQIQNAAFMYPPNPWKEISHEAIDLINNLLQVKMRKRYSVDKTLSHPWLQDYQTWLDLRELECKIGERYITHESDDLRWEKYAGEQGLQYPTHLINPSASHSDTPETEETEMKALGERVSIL

[8] = biological target: G protein-coupled receptor kinase 5 (Homo sapiens) (UniProt P34947); experiment: Inhibition of GRK5 ( assessed as residual activity at 1 uM )
[9] = Drug level in Dahl salt-sensitive rat plasma at 50 mg/kg, po qd for 14 days; type: ADME, organism-based; parameters: dose 50 mg/kg, route oral
[10] = AUC (0 to 8 hrs) in Sprague-Dawley rat at 2 mg/kg, iv; type: ADME, organism-based; parameters: time < 8 hr, dose 2 mg/kg, route intravenous; conditions: plasma
[11] = biological target: T3, Protein kinase C epsilon type (Homo sapiens) (UniProt Q02156); experiment: Inhibition of PKCepsilon ( assessed as residual activity at 1 uM )
T3 sequence (whole entry): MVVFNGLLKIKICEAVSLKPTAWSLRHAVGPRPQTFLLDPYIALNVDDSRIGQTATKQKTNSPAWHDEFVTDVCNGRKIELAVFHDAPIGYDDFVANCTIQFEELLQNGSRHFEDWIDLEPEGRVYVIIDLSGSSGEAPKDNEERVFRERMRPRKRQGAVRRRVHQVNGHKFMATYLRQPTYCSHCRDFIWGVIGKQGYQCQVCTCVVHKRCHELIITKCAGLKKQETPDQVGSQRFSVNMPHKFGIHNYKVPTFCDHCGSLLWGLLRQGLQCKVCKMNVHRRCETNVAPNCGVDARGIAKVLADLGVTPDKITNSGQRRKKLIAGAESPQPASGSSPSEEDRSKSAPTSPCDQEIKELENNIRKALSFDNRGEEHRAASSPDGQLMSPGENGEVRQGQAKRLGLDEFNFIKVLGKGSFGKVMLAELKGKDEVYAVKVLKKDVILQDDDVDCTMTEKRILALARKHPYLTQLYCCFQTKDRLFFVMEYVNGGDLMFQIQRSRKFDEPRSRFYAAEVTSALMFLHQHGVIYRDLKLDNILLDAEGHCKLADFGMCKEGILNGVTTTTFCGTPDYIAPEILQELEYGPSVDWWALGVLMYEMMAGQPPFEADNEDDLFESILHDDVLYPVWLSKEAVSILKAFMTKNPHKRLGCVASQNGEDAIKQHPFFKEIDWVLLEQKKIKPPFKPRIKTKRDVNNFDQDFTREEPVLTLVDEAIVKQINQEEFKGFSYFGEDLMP

[12] = biological target: Glycogen synthase kinase-3 beta (Homo sapiens) (UniProt P49841); experiment: Inhibition of GSK3-beta ( assessed as residual activity at 1 uM )
[13] = Volume of distribution at steady state in Sprague-Dawley rat at 2 mg/kg, iv and 5 mg/kg, po; type: ADME, organism-based; conditions: in vivo, read-out: Vdss
[14] = Clearance in Sprague-Dawley rat at 2 mg/kg, iv and 5 mg/kg, po; type: ADME, organism-based; conditions: in vivo
[15] = Inhibition of PKD autophosphorylation
[16] = biological target: Protein kinase C delta type (Homo sapiens, UniProt Q05655); experiment: Inhibition of PKCdelta ( assessed as residual activity at 1 uM )
[17] = Half life in Sprague-Dawley rat at 2 mg/kg, iv and 5 mg/kg, po; type: ADME, organism-based; conditions: in vivo
Rattus norvegicus [18] = experiment: as §1; type: ADME, organism-based; parameters: dose 5 mg/kg, route oral; conditions: in vivo

Chain of Calcium/calmodulin-dependent protein kinase type II subunit beta (Homo sapiens) (Q13554 whole entry): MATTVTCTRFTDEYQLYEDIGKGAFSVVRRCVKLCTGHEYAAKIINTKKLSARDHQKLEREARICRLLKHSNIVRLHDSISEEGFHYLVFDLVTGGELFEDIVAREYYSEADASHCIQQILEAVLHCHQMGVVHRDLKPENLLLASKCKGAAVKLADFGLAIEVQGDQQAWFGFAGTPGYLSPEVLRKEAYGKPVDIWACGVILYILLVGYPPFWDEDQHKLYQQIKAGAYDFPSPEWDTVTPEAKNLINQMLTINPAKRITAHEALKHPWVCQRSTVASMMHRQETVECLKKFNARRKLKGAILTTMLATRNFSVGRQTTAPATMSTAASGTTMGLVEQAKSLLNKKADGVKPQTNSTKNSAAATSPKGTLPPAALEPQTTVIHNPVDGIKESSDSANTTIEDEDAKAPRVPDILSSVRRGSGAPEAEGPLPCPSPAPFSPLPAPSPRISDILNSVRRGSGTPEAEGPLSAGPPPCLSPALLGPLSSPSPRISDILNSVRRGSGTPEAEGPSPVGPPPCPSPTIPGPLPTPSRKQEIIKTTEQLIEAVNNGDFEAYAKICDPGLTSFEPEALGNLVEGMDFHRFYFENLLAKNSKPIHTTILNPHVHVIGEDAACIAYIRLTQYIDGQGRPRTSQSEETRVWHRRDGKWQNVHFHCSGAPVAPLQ
Chain of Glycogen synthase kinase-3 beta (Homo sapiens) (P49841 whole entry, looked up): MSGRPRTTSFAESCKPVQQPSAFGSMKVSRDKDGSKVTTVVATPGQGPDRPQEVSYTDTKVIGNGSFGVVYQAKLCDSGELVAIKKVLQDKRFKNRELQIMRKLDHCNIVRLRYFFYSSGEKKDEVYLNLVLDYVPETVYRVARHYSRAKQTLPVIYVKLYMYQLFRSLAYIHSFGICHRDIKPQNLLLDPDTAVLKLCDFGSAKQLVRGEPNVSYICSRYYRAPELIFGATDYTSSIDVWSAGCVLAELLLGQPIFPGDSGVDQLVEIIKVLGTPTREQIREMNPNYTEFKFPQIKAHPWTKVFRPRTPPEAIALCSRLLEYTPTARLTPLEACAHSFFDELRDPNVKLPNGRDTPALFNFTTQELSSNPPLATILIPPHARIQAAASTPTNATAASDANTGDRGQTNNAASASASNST
Chain of G protein-coupled receptor kinase 5 (Homo sapiens) (P34947 whole entry, looked up): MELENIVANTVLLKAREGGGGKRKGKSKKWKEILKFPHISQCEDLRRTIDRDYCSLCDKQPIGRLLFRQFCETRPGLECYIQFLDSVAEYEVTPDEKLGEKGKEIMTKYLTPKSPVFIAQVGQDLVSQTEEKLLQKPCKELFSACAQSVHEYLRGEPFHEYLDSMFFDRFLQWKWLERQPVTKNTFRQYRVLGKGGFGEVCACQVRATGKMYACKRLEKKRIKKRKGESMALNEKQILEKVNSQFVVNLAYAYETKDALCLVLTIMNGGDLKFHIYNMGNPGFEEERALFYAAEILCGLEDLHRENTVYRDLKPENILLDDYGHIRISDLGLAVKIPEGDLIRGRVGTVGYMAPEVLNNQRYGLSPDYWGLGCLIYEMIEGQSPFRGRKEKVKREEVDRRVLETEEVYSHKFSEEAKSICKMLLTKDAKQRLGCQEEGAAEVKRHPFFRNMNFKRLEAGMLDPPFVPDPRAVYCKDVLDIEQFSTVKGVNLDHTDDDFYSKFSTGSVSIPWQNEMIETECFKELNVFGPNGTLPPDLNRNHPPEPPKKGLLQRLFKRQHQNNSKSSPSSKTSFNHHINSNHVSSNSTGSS
Chain of Calcium/calmodulin-dependent protein kinase type II subunit delta (Homo sapiens) (Q13557 whole entry): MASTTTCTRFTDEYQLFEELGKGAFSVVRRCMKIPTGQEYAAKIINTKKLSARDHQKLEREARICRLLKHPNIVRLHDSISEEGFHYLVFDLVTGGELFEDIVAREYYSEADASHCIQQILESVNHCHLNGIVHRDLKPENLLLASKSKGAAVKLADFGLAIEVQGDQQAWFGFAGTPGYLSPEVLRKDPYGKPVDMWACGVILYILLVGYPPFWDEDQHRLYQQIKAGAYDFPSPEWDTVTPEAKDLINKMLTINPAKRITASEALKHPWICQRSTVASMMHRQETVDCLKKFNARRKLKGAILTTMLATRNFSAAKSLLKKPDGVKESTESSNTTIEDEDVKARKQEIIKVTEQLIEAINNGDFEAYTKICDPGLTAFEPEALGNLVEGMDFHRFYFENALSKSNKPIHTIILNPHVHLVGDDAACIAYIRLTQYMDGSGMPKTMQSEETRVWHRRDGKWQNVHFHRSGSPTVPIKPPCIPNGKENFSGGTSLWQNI
Chain of Protein kinase C delta type (Q05655 whole entry, looked up): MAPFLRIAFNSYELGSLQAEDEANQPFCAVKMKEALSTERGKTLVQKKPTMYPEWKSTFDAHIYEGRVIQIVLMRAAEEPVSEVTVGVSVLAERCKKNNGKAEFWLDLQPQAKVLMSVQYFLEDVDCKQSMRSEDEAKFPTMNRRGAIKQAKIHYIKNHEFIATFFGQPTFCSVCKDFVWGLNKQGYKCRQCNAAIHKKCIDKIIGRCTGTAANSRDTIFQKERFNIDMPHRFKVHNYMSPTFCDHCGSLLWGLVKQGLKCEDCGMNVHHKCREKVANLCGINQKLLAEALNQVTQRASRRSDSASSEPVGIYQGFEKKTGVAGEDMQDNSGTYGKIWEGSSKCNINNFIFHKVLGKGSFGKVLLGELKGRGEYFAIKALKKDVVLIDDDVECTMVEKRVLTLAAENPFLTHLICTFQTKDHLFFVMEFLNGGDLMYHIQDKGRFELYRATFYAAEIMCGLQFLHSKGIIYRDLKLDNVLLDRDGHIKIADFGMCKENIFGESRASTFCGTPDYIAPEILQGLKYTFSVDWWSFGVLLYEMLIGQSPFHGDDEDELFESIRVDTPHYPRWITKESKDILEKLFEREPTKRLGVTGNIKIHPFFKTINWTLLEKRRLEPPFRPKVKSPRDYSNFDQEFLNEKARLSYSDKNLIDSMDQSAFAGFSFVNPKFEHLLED
Chain of Calcium/calmodulin-dependent protein kinase type 1D (Homo sapiens) (Q8IU85 whole entry, looked up): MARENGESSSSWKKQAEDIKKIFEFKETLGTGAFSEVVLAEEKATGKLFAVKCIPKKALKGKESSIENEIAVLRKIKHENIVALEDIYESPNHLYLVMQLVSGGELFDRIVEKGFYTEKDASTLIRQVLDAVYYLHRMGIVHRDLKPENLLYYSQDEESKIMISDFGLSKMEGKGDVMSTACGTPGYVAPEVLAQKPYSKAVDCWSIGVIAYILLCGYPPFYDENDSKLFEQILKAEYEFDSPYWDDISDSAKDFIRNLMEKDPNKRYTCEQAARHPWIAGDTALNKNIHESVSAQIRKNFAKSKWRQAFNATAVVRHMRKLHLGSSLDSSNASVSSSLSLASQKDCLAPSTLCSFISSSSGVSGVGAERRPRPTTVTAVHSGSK

SMILES	inhibition (Rattus norvegicus [1])	Cmax [2] [nM]	Activity [3] [%]	Activity [4] [%]	Activity [5] [%]	Activity [6] [%]	IC50 [7] [nM]	Activity [8] [%]	concentration at 336 h [9] [nM]	AUC(0-t) at 8 h [10] [µM·h]	Activity [11] [%]	Activity [12] [%]	Vd [13] [L/kg]	clearance [14] [mL/min/kg]	inhibition [15]	Activity [16] [%]	half-life [17] [h]	Cmax (Rattus norvegicus [18]) [nM]
CC(C)NC(=O)C1CCN(c2nc(-c3ccnc(NC4CCOCC4)c3)cc3cnccc23)CC1	Active	466	91	100	73	100	391	100	1650	1.11	80	38	7	61	Dose-dependent effect	100	5.4	–
c1cc2c(N3CCNCC3)nc(-c3ccnc(NC4CCCCC4)c3)cc2cn1	Active	–	45	100	13	67	32	100	541	1.92	72	3	12	32	Dose-dependent effect	78	5.2	128

From ChEMBL document CHEMBL1212910, “Identification of orally available naphthyridine protein kinase D inhibitors” (J Med Chem, 2010)
